Patent publication US11492335B2, “Aryl or heteroaryl triazolone derivatives or salts thereof, or pharmaceutical compositions comprising the same” (YUHAN CORPORATION, priority 2018, dated 2022)
Counter-ions that a name gives are not always drawn. Like-named read-outs stand apart in the source and are kept apart here.

Assays:
Format in all cases: biochemical
[1] = biological target: T1, recombinant human DAO (diamine oxidase) (Homo sapiens, UniProt P19801); assay: Activity on recombinant human DAO, Amplex Red method, 1 mM putrescine substrate; conditions: recombinant human DAO, read-out: Inhibitory Activity (IC50, nM) DAO
T1 construct: purchased R&D systems
T1 sequence (P19801 20-751): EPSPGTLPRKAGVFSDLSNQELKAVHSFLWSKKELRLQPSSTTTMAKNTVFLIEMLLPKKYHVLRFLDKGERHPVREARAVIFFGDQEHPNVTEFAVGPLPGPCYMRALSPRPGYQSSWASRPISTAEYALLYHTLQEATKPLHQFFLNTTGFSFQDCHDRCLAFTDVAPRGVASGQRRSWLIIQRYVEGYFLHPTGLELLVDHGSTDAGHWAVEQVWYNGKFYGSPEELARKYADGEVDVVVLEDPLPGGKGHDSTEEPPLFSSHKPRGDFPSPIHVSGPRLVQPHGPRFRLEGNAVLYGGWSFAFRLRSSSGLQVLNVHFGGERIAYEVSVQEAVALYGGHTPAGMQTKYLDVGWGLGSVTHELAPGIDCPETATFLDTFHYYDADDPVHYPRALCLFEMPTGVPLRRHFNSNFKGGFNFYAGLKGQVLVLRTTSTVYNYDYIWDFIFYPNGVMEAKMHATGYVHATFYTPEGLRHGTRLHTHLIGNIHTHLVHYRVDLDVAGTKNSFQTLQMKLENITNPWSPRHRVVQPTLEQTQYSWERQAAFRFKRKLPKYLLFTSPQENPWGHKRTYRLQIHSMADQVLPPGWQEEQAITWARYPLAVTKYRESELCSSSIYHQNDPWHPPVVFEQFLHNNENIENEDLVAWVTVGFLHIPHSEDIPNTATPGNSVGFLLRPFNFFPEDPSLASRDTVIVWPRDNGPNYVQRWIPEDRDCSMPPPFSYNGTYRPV
How it was run: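 Inhibition of recombinant human DAO (diamine oxidase, R&D systems) was assessed with the Amplex Red Hydrogen Peroxide Assay Kit. Hydrogen peroxide produced from 1 mM putrescine was detected through an HRP-coupled reaction that converts Amplex Red into fluorescent resorufin, read at 544 nm excitation and 590 nm emission. IC50 values came from four-parameter logistic fits in GraphPad Prism.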

[2] = biological target: T2, recombinant human MAO-B (monoamine oxidase-B) (Homo sapiens, UniProt P27338); assay: Activity on recombinant human MAO-B, Amplex Red method, 1 mM benzylamine substrate; conditions: read-out: Inhibitory Activity (IC50, nM) MAO-B
T2 construct: purchased Sigma-Aldrich
T2 sequence (P27338 1-520): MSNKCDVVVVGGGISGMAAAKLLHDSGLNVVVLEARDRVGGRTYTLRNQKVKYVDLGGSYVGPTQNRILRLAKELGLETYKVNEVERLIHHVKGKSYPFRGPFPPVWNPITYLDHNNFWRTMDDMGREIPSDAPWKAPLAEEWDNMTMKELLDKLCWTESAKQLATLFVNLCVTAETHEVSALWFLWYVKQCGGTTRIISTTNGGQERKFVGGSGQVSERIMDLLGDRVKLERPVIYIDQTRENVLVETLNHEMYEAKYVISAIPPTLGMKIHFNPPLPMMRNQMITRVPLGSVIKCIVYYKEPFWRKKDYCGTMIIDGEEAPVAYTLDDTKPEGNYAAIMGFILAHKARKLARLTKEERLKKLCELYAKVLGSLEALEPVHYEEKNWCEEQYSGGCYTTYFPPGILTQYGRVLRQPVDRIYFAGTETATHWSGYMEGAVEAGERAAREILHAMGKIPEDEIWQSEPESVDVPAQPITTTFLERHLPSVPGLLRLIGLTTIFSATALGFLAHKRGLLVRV
How it was run: (§1)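 Enzyme preincubated with compound 30 min at 37 °C in 50 mM sodium phosphate pH 7.4, final DMSO below 1%. Substrate was 0.5 mM tyramine for MAO-A and 1 mM benzylamine for MAO-B, with 200 uM Amplex Red and 1 U/mL HRP. H2O2-coupled resorufin fluorescence (ex 544/em 590) followed over 1–2 h; 8-point 4-parameter IC50.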

[3] = biological target: T3, recombinant human MAO-A (monoamine oxidase-A) (Homo sapiens, UniProt P21397); assay: Activity on recombinant human MAO-A, Amplex Red method, 0.5 mM tyramine substrate; conditions: read-out: Inhibitory Activity (IC50, nM) MAO-A
T3 construct: purchased Sigma-Aldrich
T3 sequence (P21397 1-527): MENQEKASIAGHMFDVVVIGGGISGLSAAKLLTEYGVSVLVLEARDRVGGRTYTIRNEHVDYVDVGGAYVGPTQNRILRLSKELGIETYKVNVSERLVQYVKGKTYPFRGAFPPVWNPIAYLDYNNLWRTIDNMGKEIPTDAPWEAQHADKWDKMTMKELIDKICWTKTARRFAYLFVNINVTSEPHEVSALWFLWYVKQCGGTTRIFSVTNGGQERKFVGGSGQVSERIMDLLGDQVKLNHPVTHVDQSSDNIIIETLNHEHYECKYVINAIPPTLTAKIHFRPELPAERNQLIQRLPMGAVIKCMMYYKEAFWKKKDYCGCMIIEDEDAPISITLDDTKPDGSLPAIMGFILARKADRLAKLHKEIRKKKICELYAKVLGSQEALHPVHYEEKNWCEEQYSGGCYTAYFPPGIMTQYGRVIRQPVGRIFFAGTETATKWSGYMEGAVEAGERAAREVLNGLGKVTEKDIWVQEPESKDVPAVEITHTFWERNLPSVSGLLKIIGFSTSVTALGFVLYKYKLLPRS
How it was run: as §1

recombinant human VAP-1 = biological target: T4, recombinant human VAP-1 (Homo sapiens, UniProt Q16853); assay: Activity on recombinant human VAP-1, Amplex Red HRP-coupled hydrogen peroxide assay, benzylamine substrate; conditions: recombinant human VAP-1, benzylamine substrate, read-out: Inhibitory Activity (IC50, nM) human VAP-1
T4 construct: purchased R&D systems
T4 sequence (Q16853 1-763): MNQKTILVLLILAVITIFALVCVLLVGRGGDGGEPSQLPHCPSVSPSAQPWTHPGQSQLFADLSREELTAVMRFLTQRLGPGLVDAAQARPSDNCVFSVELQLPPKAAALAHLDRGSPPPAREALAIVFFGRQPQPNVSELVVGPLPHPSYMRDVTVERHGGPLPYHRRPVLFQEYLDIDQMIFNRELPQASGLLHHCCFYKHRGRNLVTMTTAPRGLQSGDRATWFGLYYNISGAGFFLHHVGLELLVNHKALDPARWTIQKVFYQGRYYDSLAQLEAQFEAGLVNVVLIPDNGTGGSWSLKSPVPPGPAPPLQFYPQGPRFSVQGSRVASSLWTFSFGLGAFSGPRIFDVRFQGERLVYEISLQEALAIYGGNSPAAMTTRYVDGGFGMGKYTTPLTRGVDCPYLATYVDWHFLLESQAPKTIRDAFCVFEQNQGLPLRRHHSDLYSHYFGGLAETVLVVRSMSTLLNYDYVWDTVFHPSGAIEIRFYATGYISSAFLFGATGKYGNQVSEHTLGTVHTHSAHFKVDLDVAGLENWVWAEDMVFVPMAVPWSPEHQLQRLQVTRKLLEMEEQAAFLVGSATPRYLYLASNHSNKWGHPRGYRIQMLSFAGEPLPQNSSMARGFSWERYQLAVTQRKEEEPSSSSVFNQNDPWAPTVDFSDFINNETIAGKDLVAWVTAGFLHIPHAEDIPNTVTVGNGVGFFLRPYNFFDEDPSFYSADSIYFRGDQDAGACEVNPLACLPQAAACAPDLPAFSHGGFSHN
How it was run: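 Enzyme in 50 mM sodium phosphate pH 7.4 preincubated with compound 30 min at 37 °C, then 1 mM benzylamine, 200 µM Amplex Red and 1 U/mL HRP added. H2O2-derived resorufin fluorescence (ex 544/em 590 nm) followed over 1–2 h; signal-rate decrease versus DMSO control, 8-point curve, four-parameter logistic IC50.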

[4] = 1 mM putrescine, * = between 10 and 100 nM, ** = between 300 and 1000 nM

SMILES: CN(C)c1cccc(-c2cccc(-n3cnn(C/C(=C/F)CN)c3=O)n2)c1 [Example 174, 2-[(2E)-2-(aminomethyl)-3-fluoroprop-2-en-1-yl]-4-{6-[3-(dimethylamino)phenyl]pyridin-2-yl}-2,4-dihydro-3H-1,2,4-triazol-3-one hydrochloride]
- IC50 ([1]; 1 mM putrescine substrate): 1100 nM
- IC50 ([2]; 1 mM benzylamine substrate): 710 nM
- IC50 ([3]; 0.5 mM tyramine substrate): > 100000 nM
- IC50 (recombinant human VAP-1): 2.2 nM

SMILES: NC/C(=C/F)Cn1ncn(-c2ncc(-c3ccc4c(c3)OCO4)s2)c1=O [Example 232, 2-[(2Z)-2-(aminomethyl)-3-fluoroprop-2-en-1-yl]-4-[5-(1,3-benzodioxol-5-yl)-1,3-thiazol-2-yl]-2,4-dihydro-3H-1,2,4-triazol-3-one hydrochloride]
- IC50 ([1]; 1 mM putrescine substrate): < 100 nM
- IC50 ([2]; 1 mM benzylamine substrate): < 100 nM
- IC50 ([3]; 0.5 mM tyramine substrate): 24 nM
- IC50 (recombinant human VAP-1): 0.78 nM

SMILES: NC/C(=C\F)Cn1ncn(-c2cc(-c3ccc4nonc4c3)ccn2)c1=O [Example 172, 2-[(2E)-2-(aminomethyl)-3-fluoroprop-2-en-1-yl]-4-[4-(2,1,3-benzooxadiazol-5-yl)pyridin-2-yl]-2,4-dihydro-3H-1,2,4-triazol-3-one]
- IC50 ([1]; 1 mM putrescine substrate): < 30 nM
- IC50 ([2]; 1 mM benzylamine substrate): 9070 nM
- IC50 ([3]; 0.5 mM tyramine substrate): > 100000 nM
- IC50 (recombinant human VAP-1): 0.67 nM

SMILES: CS(=O)(=O)c1ccc(-c2cccc(-c3cccc(-n4cnn(C/C(=C/F)CN)c4=O)c3)c2)cc1 [Example 67, 2-[(2E)-2-(aminomethyl)-3-fluoroprop-2-en-1-yl]-4-[4″-(methylsulfonyl)-1,1′:3′,1″-terphenyl-3-yl]-2,4-dihydro-3H-1,2,4-triazol-3-one]
- IC50 [1, 4]: 11 nM
- IC50 ([2]; 1 mM benzylamine): > 10000 nM
- IC50 ([3]; 0.5 mM tyramine): > 100000 nM
- IC50 (recombinant human VAP-1; 30 min preincubation at 37° C.): 0.77 nM

SMILES: Cc1ccc(-c2ccc3c(c2)NC(=O)CO3)nc1-n1cnn(C/C(=C/F)CN)c1=O [Example 216, 6-(6-{1-[(2E)-2-(aminomethyl)-3-fluoroprop-2-en-1-yl]-5-oxo-1,5-dihydro-4H-1,2,4-triazol-4-yl}-5-methylpyridin-2-yl)-2H-1,4-benzoxazin-3 (4H)-one hydrochloride]
- IC50 ([1]; 1 mM putrescine substrate): 4200 nM
- IC50 ([2]; 1 mM benzylamine substrate): > 10000 nM
- IC50 ([3]; 0.5 mM tyramine substrate): > 100000 nM
- IC50 (recombinant human VAP-1): 88 nM

SMILES: CC(=O)Nc1ccc(-c2cnc(-n3cnn(C/C(=C/F)CN)c3=O)c(C)c2)cc1 [Example 134, N-[4-(6-{1-[(2E)-2-(aminomethyl)-3-fluoroprop-2-en-1-yl]-5-oxo-1,5-dihydro-4H-1,2,4-triazol-4-yl}-5-methylpyridin-3-yl)phenyl]acetamide hydrochloride]
- IC50 [1, 4]: 1200 nM
- IC50 ([2]; 1 mM benzylamine): > 10000 nM
- IC50 ([3]; 0.5 mM tyramine): > 100000 nM
- IC50 (recombinant human VAP-1; 30 min preincubation at 37° C.): 0.55 nM

SMILES: COc1cc(-n2cnn(C/C(=C\F)CN)c2=O)ccc1Br [Example 17, 2-[(2Z)-2-(aminomethyl)-3-fluoroprop-2-en-1-yl]-4-(4-bromo-3-methoxyphenyl)-2,4-dihydro-3H-1,2,4-triazol-3-one]
- IC50 [1, 4]: 31 nM
- IC50 ([2]; 1 mM benzylamine): 406 nM
- IC50 ([3]; 0.5 mM tyramine): > 100000 nM
- IC50 (recombinant human VAP-1; 30 min preincubation at 37° C.): 2.7 nM

SMILES: Cc1cc(-c2ccc3cn[nH]c3c2)cnc1-n1cnn(C/C(=C/F)CN)c1=O [Example 153, 2-[(2E)-2-(aminomethyl)-3-fluoroprop-2-en-1-yl]-4-[5-(1H-indazol-6-yl)-3-methylpyridin-2-yl]-2,4-dihydro-3H-1,2,4-triazol-3-one]
- IC50 ([1]; 1 mM putrescine substrate): 640 nM
- IC50 ([2]; 1 mM benzylamine substrate): 703 nM
- IC50 ([3]; 0.5 mM tyramine substrate): 96000 nM
- IC50 (recombinant human VAP-1): 0.39 nM

SMILES: NC/C(=C/F)Cn1ncn(-c2ncc(Br)s2)c1=O [Example 40, 2-[(2Z)-2-(aminomethyl)-3-fluoroprop-2-en-1-yl]-4-(5-bromo-1,3-thiazol-2-yl)-2,4-dihydro-3H-1,2,4-triazol-3-one hydrochloride]
- IC50 [1, 4]: 25 nM
- IC50 ([2]; 1 mM benzylamine): 619 nM
- IC50 ([3]; 0.5 mM tyramine): 80 nM
- IC50 (recombinant human VAP-1; 30 min preincubation at 37° C.): 1.1 nM

SMILES: CC(=O)Nc1cc(-c2cccc(-n3cnn(C/C(=C/F)CN)c3=O)c2)ccn1 [Example 81, N-[4-(3-{1-[(2E)-2-(aminomethyl)-3-fluoroprop-2-en-1-yl]-5-oxo-1,5-dihydro-4H-1,2,4-triazol-4-yl}phenyl)pyridin-2-yl]acetamide hydrochloride]
- IC50 [1, 4]: < 100 nM
- IC50 ([2]; 1 mM benzylamine): 7520 nM
- IC50 ([3]; 0.5 mM tyramine): > 100000 nM
- IC50 (recombinant human VAP-1; 30 min preincubation at 37° C.): 0.54 nM

SMILES: NC/C(=C/F)Cn1ncn(-c2ccc(F)cc2)c1=O [Example 5, 2-[(2Z)-2-(aminomethyl)-3-fluoroprop-2-en-1-yl]-4-(4-fluorophenyl)-2,4-dihydro-3H-1,2,4-triazol-3-one]
- IC50 [1, 4]: 1100 nM
- IC50 ([2]; 1 mM benzylamine): 260 nM
- IC50 ([3]; 0.5 mM tyramine): 1600 nM
- IC50 (recombinant human VAP-1; 30 min preincubation at 37° C.): 3.8 nM

SMILES: NC/C(=C\F)Cn1ncn(-c2cccc(-c3cccnc3)c2)c1=O [Example 82, 2-[(2E)-2-(aminomethyl)-3-fluoroprop-2-en-1-yl]-4-[3-(pyridin-3-yl)phenyl]-2,4-dihydro-3H-1,2,4-triazol-3-one hydrochloride]
- IC50 [1, 4]: < 100 nM
- IC50 ([2]; 1 mM benzylamine): 18000 nM
- IC50 ([3]; 0.5 mM tyramine): > 100000 nM
- IC50 (recombinant human VAP-1; 30 min preincubation at 37° C.): 0.8 nM
